From US7052850B2, “Isolated human EDG-4 receptor” (priority 1997, dated 2006) come the findings set out here.

This assay deals with pcDNA3-transfected 293-EBNA cells. Put plainly: SRE luciferase reporter in 293-EBNA cells, empty vector pcDNA3. The format is cell-based. The settings on record: for SRE reporter response: Assay 3, 3 μM. How it is done: The protocol described in Example 11 for Assay 1 was allowed except for the following changes: • 1) 100 mm plates of 293-EBNA ith a confluency of ˜80% were used for transfection, • 2) SRE Cotransfection: 0.5 μg of 2XSREtk-p4Luc-zeo reporter DNA and 3.5 μg pcDNA3, EDG-1, EDG-3 pC3-hE3P2, different from the clone used in Assay 2 of Example 11) or the newly cloned human EDG-4 (pC3-hedg4#36); NF-κB Cotransfection: 2 μg 6XNFκBtk-p4LUc-zeo reporter DNA and 2.0 μg pcDNA3, EDG-1, EDG-3 (pC3-hE3HP2), or EDG-4 (pC3-hedg4#36). Expression plasmid and reporter plasmid DNA samples were combined and diluted in 750 μl of DMEM/F12 (serum free media) and 20 μl Plus Reagent (Lipofectamine Plus Kit, Life Technologies Cat. 109640-13), and incubated at room temperature for 15 min. • 3) 30 μl Lipofectamine Reagent (Lipofectamine Plus Kit) was diluted in 750 μl DMEM/F12. The diluted Lipofectamine was then combined with the DNA/Plus mixture and incubated at room temperature for 15 min. • 4) The 293-EBNA plates were washed once with PBS and 5 ml DMEM/F12 was added to each plate. • 5) DNA/Plus/Lipofectamine mixture was added to each plate of 293-EBNA cells. The plates were left for 3 hr at 37° C. in a 5% CO2 incubator. • 6) The transfection medium was replaced with serum-free DMEM/F12 for cells transfected with 2XSREtk-p4Luc-zeo reporter DNA and with DMEM/F12 plus 10% FBS for cells transfected with 6XNFκBtk-p4Luc-zeo reporter DNA. • Day 2. • 2) Transfected cells were harvested by trypsinization and 50,000 cells per well were plated in 96-well Blackview plates coated with poly D-lysine Becton Dickinson Labware, Cat. 40640). No cells were plated in the outside wells of the 96-well plate. • Day 3. • 1) Media for cells transfected with 6XNF-κBtk-p4Luc-zeo reporter DNA was replaced with DMEM/F12 plus 0.5% FBS. • Day 4. • 1) Media was removed and cells treated with compounds diluted in DMEM/F12 media. The following treatments were used for all transfections:
Transfection was accomplished using the Lipofectamine Plus kit (Life Technologies, Cat. 10964-013), using the manufacturer's recommended conditions. Optimal SRE induction was seen when cells were seeded so as to become 100% confluent at the time of treatment, 72–96 hr after transfection.
293-EBNA cells were grown, lipofected in monolayer cultures, and pretreated as described above for Example 11, assay #1, except that NF-κB and AP-1 reporter-transfected cells were preteated for 6 hr in medium containing 0.5% […], then treated overnight in the same medium with or without 10 μM LPA.
Background: A reporter such as luciferase makes a cellular process visible.

With `CCCCCCCCCCCCC/C=C/[C@@H](O)[C@@H](N)COP(=O)(O)O` [S1P, sphingosine 1-phosphate], where the note is “pcDNA3 control”, the SRE reporter response result is “about 1.5 fold”.
Regarding `CCCCCCCCCCCCC/C=C/[C@@H](O)[C@@H](N)COP(=O)([O-])OCC[N+](C)(C)C` [SPC, sphingosylphosphorylcholine], the SRE reporter response result (pcDNA3 control) is “not”. Further, the “induction of the SRE reporter” value (Example 15A, pcDNA3 control, 3 μM SPC, 6 hr) is reported as “about 2.5 fold”.
lysophosphatidic acid [LPA]: the “endogenous SRE reporter response vs untreated control cells” value (pcDNA3, 10 μM LPA) was “about 1.5 fold”.
